Values of other authors, collected in US20040147613A1, “Use of neuroactive substances for the treatment of parkinsons disease and pharmaceutical combination” (priority 2001, published 2004).

Key:
[1] = tested on: local synapse populations / central projections
[2] = tested on: GABAergic axosomatic synapses in the medial prefrontal cortex; conditions: 4-month chronic treatment, rat
central DA-receptors = conditions: foetal administrations

CNCCCN1c2ccccc2CCc2ccccc21 [desipramine]
axonal sprouting of central projections ([1]; chronic treatment): induces axonal sprouting of central noradrenergic and probably also dopaminergic cortical projections

O=C(CCCN1CCC(O)(c2ccc(Cl)cc2)CC1)c1ccc(F)cc1 [haloperidol]
number of GABAergic axosomatic synapses in the medial prefrontal cortex [2]: dramatic rise in the number of GABAergic axosomatic synapses | sprouting of glutamatergic corticostriatal projections ([1]; 14-day chronic treatment): indications of transsynaptic sprouting of glutamatergic corticostriatal projections

β-endorphin
effect on central DA-receptors (central DA-receptors): expression of the plastic capacities, typical of adult rats, of central DA-receptors ceases
